Assay results: US20240052053A1, “ENHANCEMENT OF ANTIBODY-DEPENDENT CELL-MEDIATED CYTOTOXICITY (ADCC)” (IO Biotech ApS, priority 2017, published 2024)
Entries after “also recorded” stand apart in the source; their conditions may differ.

Test system: U266 myeloma cells
Assay: 51Cr-release cytotoxic assay with PD-L1-specific CTLs
Format: cell-based, human
Details: U266 cells pretreated with IFN-γ
Experimental: The cytotoxicity assay was performed as in Example 1. Briefly, HLA-A2-positive CTLs that were specific to PD-L1 were thawed, rested over-night and used as effector cells against 51 Cr-labeled HLA-A2-positive U266 myeloma cells in different effector to target (E:T)-cell ratios.

“IFN-γ: Interferon gamma, a major inducer of PD-L1 expression, used to pretreat U266 cells” was tested. Which “killing of U266 cells by PD-L1 specific CTLs after pretreatment” value did it give?
The value was “more susceptible to being killed; also recorded: tendency towards increased killing”.
